Data reported in ChEMBL document CHEMBL1201862, “PubChem BioAssay data set” (2004).
Blank lines part the entries; values can stand above or below the compound they belong to. Calls of active or inactive are those of the source.

Tests used:
[1] = target: T1, Short transient receptor potential channel 4 (Mus musculus, UniProt Q9QUQ5); assay: mouse TRPC4 channel activators, dose response, cell-based, HEK293 TRPC4/mu-opioid, Fluo-4 calcium (AID 434937); format: functional
T1 sequence (Q9QUQ5 whole entry): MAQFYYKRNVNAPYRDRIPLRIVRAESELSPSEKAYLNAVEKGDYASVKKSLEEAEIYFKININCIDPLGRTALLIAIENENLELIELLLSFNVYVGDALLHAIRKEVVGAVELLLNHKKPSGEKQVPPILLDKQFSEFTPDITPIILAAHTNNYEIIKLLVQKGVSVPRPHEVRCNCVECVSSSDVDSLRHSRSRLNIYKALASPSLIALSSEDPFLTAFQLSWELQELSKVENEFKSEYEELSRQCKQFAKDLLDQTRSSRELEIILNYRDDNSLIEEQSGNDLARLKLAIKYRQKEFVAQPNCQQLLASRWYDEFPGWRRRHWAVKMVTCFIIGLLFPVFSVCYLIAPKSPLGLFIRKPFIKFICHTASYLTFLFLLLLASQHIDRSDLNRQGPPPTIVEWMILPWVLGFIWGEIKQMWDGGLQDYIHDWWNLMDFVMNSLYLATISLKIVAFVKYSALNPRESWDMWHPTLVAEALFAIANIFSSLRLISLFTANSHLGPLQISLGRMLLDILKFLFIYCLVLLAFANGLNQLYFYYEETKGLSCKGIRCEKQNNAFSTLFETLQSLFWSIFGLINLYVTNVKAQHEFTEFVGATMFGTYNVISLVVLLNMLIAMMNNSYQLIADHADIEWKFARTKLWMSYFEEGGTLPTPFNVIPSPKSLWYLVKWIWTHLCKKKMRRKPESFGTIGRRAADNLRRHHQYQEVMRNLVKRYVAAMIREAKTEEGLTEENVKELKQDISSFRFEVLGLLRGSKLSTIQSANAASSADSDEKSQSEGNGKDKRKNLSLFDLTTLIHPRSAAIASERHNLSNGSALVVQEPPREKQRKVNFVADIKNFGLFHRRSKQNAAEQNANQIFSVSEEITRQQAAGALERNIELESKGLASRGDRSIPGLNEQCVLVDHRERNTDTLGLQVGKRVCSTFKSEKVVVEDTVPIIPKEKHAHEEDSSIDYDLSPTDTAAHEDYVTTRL

[2] = target: T2, Carboxy-terminal domain RNA polymerase II polypeptide A small phosphatase 1 (Homo sapiens, UniProt Q9GZU7); assay: inhibitors of CTDSP1, concentration-response testing, biochemical assay, absorbance-based, actives from ultra-high-throughput screening (AID 540297); format: functional
T2 sequence (Q9GZU7 whole entry): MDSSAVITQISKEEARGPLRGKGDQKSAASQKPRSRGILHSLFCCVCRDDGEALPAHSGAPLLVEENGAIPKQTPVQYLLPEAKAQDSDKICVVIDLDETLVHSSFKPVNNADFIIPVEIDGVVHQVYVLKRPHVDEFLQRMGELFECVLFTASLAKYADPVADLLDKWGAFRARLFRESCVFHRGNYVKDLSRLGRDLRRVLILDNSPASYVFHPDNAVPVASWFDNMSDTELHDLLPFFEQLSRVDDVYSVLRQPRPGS

[3] = target: T3, Cysteine protease ATG4B (Homo sapiens, UniProt Q9Y4P1); format: functional;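 also: Fluorescence-based dose-response confirmation assay measuring inhibition of ATG4B activity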
T3 sequence (Q9Y4P1 whole entry): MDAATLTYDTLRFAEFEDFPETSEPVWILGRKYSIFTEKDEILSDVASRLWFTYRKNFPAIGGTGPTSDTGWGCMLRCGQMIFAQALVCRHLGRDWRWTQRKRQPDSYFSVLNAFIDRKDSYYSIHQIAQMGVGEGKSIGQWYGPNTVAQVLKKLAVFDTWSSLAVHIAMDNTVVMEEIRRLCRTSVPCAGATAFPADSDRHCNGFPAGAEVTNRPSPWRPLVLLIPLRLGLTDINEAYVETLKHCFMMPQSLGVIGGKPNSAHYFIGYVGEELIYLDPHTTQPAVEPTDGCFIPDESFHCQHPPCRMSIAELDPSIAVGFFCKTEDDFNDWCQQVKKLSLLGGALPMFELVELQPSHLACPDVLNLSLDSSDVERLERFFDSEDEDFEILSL

[4] = target: Phospholipase A2 (Homo sapiens, UniProt P04054); format: functional;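 also: confirmatory dose-response counterscreen on phospholipase A2, testing hits that came from an ultra-high-throughput screen for ATG4B inhibitors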
Chain of Phospholipase A2 (P04054 whole entry): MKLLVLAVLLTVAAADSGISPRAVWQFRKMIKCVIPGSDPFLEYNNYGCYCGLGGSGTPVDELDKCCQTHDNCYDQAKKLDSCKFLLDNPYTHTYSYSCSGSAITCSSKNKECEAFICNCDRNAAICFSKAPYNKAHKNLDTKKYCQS

[5] = test system: SN12K1; assay: cells; format: functional; conditions: Homo sapiens
[6] = test system: P388; assay: cells; format: functional; conditions: Mus musculus
[7] = test system: P388/ADR; assay: cells; format: functional; conditions: Mus musculus
[8] = target: T4, High affinity choline transporter 1 (Homo sapiens, UniProt Q9GZV3); assay: CHT inhibitors, dose response, cell-based, 5-point CRC, membrane potential dye (AID 504840); format: functional
T4 sequence (Q9GZV3 whole entry): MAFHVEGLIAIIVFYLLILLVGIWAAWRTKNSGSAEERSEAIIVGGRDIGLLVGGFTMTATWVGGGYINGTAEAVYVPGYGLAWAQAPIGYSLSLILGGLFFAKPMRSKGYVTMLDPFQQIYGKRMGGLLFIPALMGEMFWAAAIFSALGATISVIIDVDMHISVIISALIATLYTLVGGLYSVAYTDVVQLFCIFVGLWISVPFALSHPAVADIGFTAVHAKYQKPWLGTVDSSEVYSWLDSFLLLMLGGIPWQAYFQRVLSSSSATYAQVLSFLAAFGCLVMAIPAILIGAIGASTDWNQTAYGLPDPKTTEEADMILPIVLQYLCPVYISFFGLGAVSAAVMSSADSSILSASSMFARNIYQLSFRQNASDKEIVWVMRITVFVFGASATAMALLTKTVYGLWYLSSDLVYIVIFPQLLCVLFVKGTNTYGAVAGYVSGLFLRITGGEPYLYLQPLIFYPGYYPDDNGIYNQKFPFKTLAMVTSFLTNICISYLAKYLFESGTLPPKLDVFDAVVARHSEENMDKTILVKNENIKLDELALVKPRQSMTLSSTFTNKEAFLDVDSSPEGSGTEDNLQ

[9] = target: Heat shock protein HSP 90-alpha (Homo sapiens, UniProt P07900); format: functional, organism-based
[10] = target: T5, Zinc finger protein mex-5 (Caenorhabditis elegans, UniProt Q9XUB2); assay: MEX-5/TCR-2 RNA interaction inhibitors, dose response, biochemical, C. elegans, fluorescence polarization (AID 1960)
T5 sequence (Q9XUB2 whole entry): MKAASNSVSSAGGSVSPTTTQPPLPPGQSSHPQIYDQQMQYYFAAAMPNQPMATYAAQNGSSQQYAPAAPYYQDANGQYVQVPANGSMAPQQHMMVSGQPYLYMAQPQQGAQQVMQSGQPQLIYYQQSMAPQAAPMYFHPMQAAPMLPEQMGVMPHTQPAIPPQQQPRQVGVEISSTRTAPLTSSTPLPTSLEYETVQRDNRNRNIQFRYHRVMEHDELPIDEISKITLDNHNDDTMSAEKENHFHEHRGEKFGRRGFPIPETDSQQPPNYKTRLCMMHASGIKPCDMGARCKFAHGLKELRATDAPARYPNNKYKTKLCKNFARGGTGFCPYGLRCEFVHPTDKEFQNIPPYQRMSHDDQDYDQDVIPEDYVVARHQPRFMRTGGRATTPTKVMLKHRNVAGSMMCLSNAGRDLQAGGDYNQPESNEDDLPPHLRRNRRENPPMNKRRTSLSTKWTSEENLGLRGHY

[11] = target: T6, RNA-binding protein pos-1 (Caenorhabditis elegans, UniProt G5EF15); assay: inhibitors of POS-1/mex-3 RNA binding, dose response, biochemical, fluorescence polarization (AID 1964);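 also: purified POS-1 fused to maltose binding protein made in E. coli; potency of compounds blocking POS-1 binding to fluorescent RNA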
T6 sequence (G5EF15 whole entry): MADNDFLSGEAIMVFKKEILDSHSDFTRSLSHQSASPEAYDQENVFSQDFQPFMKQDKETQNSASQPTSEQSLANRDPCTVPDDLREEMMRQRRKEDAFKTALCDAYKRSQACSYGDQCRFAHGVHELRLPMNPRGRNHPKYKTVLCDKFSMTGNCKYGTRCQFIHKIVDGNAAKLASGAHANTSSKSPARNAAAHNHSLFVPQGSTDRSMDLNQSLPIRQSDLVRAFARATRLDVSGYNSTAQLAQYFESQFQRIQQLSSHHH

[12] = target: Cytochrome P450 2C19 (Homo sapiens, UniProt P33261); assay: Cytochrome panel assay with activity outcomes. Panel member name: p450-cyp2c19 Compounds with AC50 equal or less than 10 uM are considered active; format: functional; conditions: read-out: AC50
Chain of Cytochrome P450 2C19 (P33261 whole entry): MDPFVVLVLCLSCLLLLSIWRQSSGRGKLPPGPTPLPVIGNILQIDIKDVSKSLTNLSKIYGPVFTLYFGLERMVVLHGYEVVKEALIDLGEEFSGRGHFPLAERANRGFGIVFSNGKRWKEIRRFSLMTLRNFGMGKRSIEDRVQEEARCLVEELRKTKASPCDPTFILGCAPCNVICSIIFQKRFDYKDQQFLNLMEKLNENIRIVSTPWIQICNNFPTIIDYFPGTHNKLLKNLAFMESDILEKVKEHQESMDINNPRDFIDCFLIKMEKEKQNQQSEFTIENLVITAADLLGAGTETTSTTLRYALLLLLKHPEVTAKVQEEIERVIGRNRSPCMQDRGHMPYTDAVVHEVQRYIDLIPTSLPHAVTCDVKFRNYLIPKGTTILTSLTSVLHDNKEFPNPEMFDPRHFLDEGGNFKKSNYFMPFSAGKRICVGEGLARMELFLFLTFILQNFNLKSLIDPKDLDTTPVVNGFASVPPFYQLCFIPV

[13] = target: T7, Cytochrome P450 1A2 (Homo sapiens, UniProt P05177);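 also: PubChem cytochrome P450 panel assay, CYP1A2 panel member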
T7 sequence (P05177 whole entry): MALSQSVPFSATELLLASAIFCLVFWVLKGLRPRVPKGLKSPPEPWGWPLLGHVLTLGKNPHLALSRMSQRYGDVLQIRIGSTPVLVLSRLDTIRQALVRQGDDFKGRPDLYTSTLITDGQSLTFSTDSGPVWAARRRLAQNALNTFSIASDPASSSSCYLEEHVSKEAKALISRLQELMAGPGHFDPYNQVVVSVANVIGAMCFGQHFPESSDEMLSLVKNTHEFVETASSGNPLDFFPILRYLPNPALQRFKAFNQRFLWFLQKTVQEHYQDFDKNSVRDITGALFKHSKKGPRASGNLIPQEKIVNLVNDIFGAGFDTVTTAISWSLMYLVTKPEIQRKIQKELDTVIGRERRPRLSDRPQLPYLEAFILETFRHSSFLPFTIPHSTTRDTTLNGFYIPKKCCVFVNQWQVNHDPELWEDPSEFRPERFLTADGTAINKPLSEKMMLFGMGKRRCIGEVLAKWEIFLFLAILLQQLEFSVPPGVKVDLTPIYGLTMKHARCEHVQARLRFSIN

EC50 [1]: 2.11 µM (active)
SMILES: COc1ccc(C(CNC(=O)C2CCN(S(=O)(=O)c3ccc(F)cc3)CC2)N(C)C)cc1 (stereo unspecified)

EC50 [1]: 0.376 µM (active)
SMILES: COc1ccc(C(CNC(=O)c2cc(C)on2)N(C)C)cc1 (stereo unspecified)

IC50 [2]: 11.3 µM (active)
SMILES: CSc1nc2nccc(-c3ccc(Cl)cc3)n2n1

IC50 [3]: 17.9 µM (active)
IC50 [4]: 9.15 µM (active)
SMILES: Cc1ccc2nc(N/N=C/c3ccccc3F)nc(-c3ccccc3)c2c1

SMILES: CC(C)Cc1ccc(C(C)C(=O)N2CCN(/C=C/c3ccccc3)CC2)cc1 (stereo unspecified)
GI50 [5]: 13.7 µM (inactive)
GI50 [6]: 7.35 µM (inactive)
GI50 [7]: 10.9 µM (inactive)

EC50 [1]: 5.31 µM (active)
SMILES: O=c1c(Cc2ccc(F)cc2)c(O)ccn1CCc1c[nH]cn1

SMILES: CCCC(=O)OCC1OC(n2ccc(N)nc2=O)C(OC(=O)CCC)C1OC(=O)CCC (stereo unspecified)
GI50 [5]: 1.86 µM (inactive)
GI50 [6]: 0.2 µM (active)
GI50 [7]: 11.1 µM (inactive)

IC50 [8]: 10 µM (active)
IC50 [3]: 7.3 µM (active)
IC50 [4]: 11.2 µM (active)
SMILES: Oc1c(Cl)cc(Cl)cc1/C=N/c1ccc2c(c1)OCCO2

AC50 [9]: 5.2 µM (active)
SMILES: O=C(c1ccc(Cl)cc1)N1CCN(c2ccc(F)cc2)CC1

EC50 [1]: 2.66 µM (active)
SMILES: CC(=O)Nc1ccc(CN2CCCC(C(=O)c3ccc(C(F)(F)F)cc3)C2)cc1 (stereo unspecified)

EC50 [10]: > 300 µM (not active)
IC50 [2]: 8.69 µM (active)
EC50 [11]: > 300 µM (not active)
SMILES: O=C(N/N=C/c1cccn1-c1cccc(C(=O)O)c1)Nc1ccccc1

AC50 [9]: 5.63 µM (active)
SMILES: O=C(/C=C/c1ccnc2ccccc12)c1cccs1

IC50 [2]: 4.32 µM (active)
SMILES: CCOC(=O)C1=C(C)N=c2s/c(=C\c3cccc(OCC(=O)O)c3)c(=O)n2C1c1ccccc1OC (stereo unspecified)

SMILES: COC(=O)c1ccc(/N=N/N(C)COc2ccc(Br)cc2)cc1
GI50 [5]: > 66.8 µM (inactive)
GI50 [6]: 27 µM (inactive)
GI50 [7]: 32.8 µM (inactive)

AC50 [12]: 1.12 µM (inconclusive)
AC50 [13]: 1.58 µM (inconclusive)
IC50 [2]: 5.38 µM (active)
SMILES: CCCCCN1CC(=O)C(c2nc(-c3ccc(Cl)cc3)cs2)=C1N

SMILES: CC12CCC(C(=O)N3CC=CCC3)(OC1=O)C2(C)C (stereo unspecified)
GI50 [5]: > 100 µM (inactive)
GI50 [6]: > 100 µM (inactive)
GI50 [7]: > 100 µM (inactive)

SMILES: O=C[C@@H](CO)O[C@H](C=O)c1c[nH]c(=O)[nH]c1=O
GI50 [5]: 76.6 µM (inactive)
GI50 [6]: > 80.7 µM (inactive)
GI50 [7]: 38.1 µM (inactive)

IC50 [3]: 15.9 µM (active)
IC50 [4]: 12.1 µM (active)
SMILES: C=CCn1c(SCc2nc3scc(-c4ccccc4)c3c(=O)[nH]2)nnc1-c1ccccc1F

SMILES: O/N=N/c1cnccn1
GI50 [5]: 1070 µM (inactive)
GI50 [6]: > 721 µM (inactive)
GI50 [7]: 668 µM (inactive)

IC50 [3]: 15.3 µM (active)
IC50 [4]: 11.1 µM (active)
SMILES: Cc1cccc(N2CCN(C(=O)C3CCN(c4ncnc5c4nc4n5CCCCC4)CC3)CC2C)c1 (stereo unspecified)
